# Test results taken from ChEMBL document CHEMBL5257151, “Design, synthesis, and pharmacological evaluation of N-(3-carbamoyl-1H-pyrazol-4-yl)-1,3-oxazole-4-carboxamide derivatives as interleukin-1 receptor-associated kinase 4 inhibitors with reduced potential for cytochrome P450 1A2 induction” (Bioorg Med Chem, 2023).
# Experiments:
# [1] = tested on: CYP1A2; test: Induction of CYP1A2 mRNA expression in human HepaRG cells assessed as fold change at 30 uM incubated for 48 hrs; assay type: ADME, cell-based; conditions: read-out: FC
# [2] = Inhibition of IL-1beta stimulated IL-6 production in human A549 cells pre-incubated for 1 hr followed by overnight stimulation by ELISA analysis; assay type: functional, cell-based
# [3] = target: T1, Interleukin-1 receptor-associated kinase 4 (Homo sapiens, UniProt Q9NWZ3); test: Inhibition of human IRAK4 using biotinylated FGLARFSRFAGSSPSQSSMVARTQTVRGT peptide as substrate incubated for 1 hr in presence of ATP by ELISA assay
# T1 sequence (Q9NWZ3 whole entry): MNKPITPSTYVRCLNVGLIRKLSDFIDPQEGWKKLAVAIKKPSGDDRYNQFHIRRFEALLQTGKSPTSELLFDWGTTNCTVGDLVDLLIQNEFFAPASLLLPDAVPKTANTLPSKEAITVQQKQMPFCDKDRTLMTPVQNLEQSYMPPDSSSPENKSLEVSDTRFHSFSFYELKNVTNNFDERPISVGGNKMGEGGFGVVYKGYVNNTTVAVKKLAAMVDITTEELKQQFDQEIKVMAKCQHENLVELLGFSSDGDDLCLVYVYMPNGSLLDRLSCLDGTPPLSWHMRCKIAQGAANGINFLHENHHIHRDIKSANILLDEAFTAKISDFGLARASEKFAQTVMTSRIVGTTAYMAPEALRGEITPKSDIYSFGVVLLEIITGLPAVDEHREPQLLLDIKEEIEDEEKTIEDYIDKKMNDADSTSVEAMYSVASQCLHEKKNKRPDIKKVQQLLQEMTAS
# [4] = tested on: CYP1A2; test: Induction of CYP1A2 mRNA expression in human HepaRG cells assessed as fold change at 15 uM incubated for 48 hrs; assay type: ADME, cell-based; conditions: read-out: FC
# [5] = target: T2, CYP1A2 (Homo sapiens, UniProt P05177); test: Reversible inhibition of CYP1A2 in human liver microsomes assessed as residual activity at 5 uM using phenacetin as substrate preincubated for 30 mins followed by substrate addition measured after 20 mins by LC-MS/MS analysis relative to control; assay type: ADME, Microsome; conditions: probe phenacetin, time 50 min, read-out: Activity
# T2 sequence (P05177 whole entry): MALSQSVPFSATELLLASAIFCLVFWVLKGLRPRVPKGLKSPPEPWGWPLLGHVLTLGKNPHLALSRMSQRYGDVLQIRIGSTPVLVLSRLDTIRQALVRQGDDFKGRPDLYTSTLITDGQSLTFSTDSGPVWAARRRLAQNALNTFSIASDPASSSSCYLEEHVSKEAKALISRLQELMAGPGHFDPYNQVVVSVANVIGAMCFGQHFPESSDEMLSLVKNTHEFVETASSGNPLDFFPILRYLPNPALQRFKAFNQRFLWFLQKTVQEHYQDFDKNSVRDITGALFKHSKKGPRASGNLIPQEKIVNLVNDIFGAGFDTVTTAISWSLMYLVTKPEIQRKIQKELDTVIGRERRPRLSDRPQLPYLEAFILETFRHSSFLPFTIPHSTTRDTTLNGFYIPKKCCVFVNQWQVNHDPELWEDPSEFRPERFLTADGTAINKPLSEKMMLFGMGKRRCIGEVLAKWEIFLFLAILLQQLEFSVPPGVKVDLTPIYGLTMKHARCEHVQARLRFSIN
# [6] = target: T3, CYP3A4 (Homo sapiens, UniProt P08684); test: Reversible inhibition of CYP3A4 in human liver microsomes assessed as residual activity at 5 uM using midazolam as substrate preincubated for 30 mins followed by substrate addition measured after 20 mins by LC-MS/MS analysis relative to control; assay type: ADME, Microsome; conditions: probe midazolam, time 50 min, read-out: Activity
# T3 sequence (P08684 whole entry): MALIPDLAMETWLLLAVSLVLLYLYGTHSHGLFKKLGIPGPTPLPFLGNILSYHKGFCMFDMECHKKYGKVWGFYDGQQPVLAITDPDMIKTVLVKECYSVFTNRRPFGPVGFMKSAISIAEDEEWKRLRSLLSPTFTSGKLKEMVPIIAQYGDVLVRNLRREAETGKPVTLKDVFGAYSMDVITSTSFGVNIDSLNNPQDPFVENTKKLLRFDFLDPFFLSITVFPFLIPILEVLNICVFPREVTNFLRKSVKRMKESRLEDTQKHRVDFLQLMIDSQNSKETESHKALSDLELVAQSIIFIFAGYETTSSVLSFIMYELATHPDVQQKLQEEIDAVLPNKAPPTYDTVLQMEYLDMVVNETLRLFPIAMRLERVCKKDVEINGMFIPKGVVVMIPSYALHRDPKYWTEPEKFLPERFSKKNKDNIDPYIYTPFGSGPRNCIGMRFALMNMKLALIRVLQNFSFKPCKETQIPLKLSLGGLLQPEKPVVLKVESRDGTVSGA
# [7] = target: T3, CYP3A4; test: Time dependent inhibition of CYP3A4 in human liver microsomes assessed as residual activity at 5 uM using midazolam as substrate preincubated for 30 mins followed by substrate addition measured after 20 mins by LC-MS/MS analysis relative to control; assay type: ADME, Microsome; conditions: probe midazolam, read-out: Activity
# [8] = tested on: CYP1A2; test: Induction of CYP1A2 mRNA expression in human HepaRG cells assessed as fold change at 5 uM incubated for 48 hrs; assay type: ADME, cell-based; conditions: read-out: FC
# [9] = target: CYP2C9 (Homo sapiens, UniProt P11712); test: Reversible inhibition of CYP2C9 in human liver microsomes assessed as residual activity at 5 uM using diclofenac as substrate preincubated for 30 mins followed by substrate addition measured after 20 mins by LC-MS/MS analysis relative to control; assay type: ADME, Microsome; conditions: probe diclofenac, time 50 min, read-out: Activity
# Chain of CYP2C9 (P11712 whole entry): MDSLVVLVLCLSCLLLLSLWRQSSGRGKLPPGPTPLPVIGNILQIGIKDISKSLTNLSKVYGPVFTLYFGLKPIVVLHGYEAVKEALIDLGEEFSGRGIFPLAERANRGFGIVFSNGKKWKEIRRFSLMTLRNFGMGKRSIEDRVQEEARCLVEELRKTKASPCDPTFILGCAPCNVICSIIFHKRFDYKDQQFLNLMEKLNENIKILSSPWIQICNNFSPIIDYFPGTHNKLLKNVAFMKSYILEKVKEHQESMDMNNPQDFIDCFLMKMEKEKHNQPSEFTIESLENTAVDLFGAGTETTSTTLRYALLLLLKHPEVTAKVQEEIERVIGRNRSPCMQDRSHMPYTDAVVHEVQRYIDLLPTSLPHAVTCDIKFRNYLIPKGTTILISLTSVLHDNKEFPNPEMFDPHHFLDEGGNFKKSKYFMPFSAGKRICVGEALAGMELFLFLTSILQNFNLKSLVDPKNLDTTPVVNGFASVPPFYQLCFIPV
# [10] = target: T4, CYP2C8 (Homo sapiens, UniProt P10632); test: Reversible inhibition of CYP2C8 in human liver microsomes assessed as residual activity at 5 uM using amodiaquine as substrate preincubated for 30 mins followed by substrate addition measured after 20 mins by LC-MS/MS analysis relative to control; assay type: ADME, Microsome; conditions: probe amodiaquine, time 50 min, read-out: Activity
# T4 sequence (P10632 whole entry): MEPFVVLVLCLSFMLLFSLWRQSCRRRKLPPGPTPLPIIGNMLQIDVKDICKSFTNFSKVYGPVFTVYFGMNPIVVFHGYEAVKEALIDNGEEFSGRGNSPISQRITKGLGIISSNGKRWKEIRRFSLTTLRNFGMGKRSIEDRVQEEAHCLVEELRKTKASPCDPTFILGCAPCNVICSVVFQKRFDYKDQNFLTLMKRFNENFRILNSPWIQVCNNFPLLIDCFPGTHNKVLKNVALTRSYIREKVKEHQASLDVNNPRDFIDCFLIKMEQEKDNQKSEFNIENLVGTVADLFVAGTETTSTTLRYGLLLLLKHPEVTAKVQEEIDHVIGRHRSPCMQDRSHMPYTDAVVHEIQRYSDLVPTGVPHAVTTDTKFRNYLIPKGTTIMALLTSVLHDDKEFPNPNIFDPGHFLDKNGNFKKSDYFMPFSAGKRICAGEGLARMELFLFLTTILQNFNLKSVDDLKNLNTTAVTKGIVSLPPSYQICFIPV
# [11] = tested on: CYP1A2; test: Induction of CYP1A2 mRNA expression in human HepaRG cells assessed as fold change at 10 uM incubated for 48 hrs; assay type: ADME, cell-based; conditions: read-out: FC
# [12] = tested on: CYP1A2; test: Induction of CYP1A2 mRNA expression in human HepaRG cells assessed as fold change at 7.5 uM incubated for 48 hrs; assay type: ADME, cell-based; conditions: read-out: FC
structure (smiles),measurement,setting,value
Cc1cc(-c2nc(C(=O)Nc3cn(C4CCS(=O)(=O)CC4)nc3C(N)=O)co2)ccn1,"fold induction at 48 h, 30 µM",[1],3.5
same,IC50,[2],1600 nM
Cc1cc(-c2nc(C(=O)Nc3c[nH]nc3C(N)=O)co2)ccn1,IC50,[3],120 nM
NC(=O)c1nn(C2CCOCC2)cc1NC(=O)c1coc(-c2ccncc2F)n1,IC50,[3],82 nM
CCc1cc(-c2nc(C(=O)Nc3cn(C4CCOCC4)nc3C(N)=O)co2)ccn1,IC50,[3],14 nM
Cc1cc(-c2nc(C(=O)Nc3cn(CC(C)C)nc3C(N)=O)co2)ccn1,IC50,[3],48 nM
same,"fold induction at 48 h, 15 µM",[4],4
CCn1cc(NC(=O)c2coc(-c3ccnc(C)c3)n2)c(C(N)=O)n1,"activity at 20 min, 5 µM",[5],47%
same,IC50,[3],16 nM
same,"activity at 20 min, 5 µM",[6],100%
same,"activity at 20 min, 5 µM",[7],108%
same,"fold induction at 48 h, 5 µM",[8],16
same,"activity at 20 min, 5 µM",[9],98%
same,"activity at 20 min, 5 µM",[10],103%
NC(=O)c1nn(C2CCOCC2)cc1NC(=O)c1coc(-c2ccnc(C3CC3)c2)n1,IC50,[3],67 nM
Cc1cc(-c2ccc(C(=O)Nc3cn(C4CCOCC4)nc3C(N)=O)o2)ccn1,IC50,[3],13 nM
NC(=O)c1nn(C2CCOCC2)cc1NC(=O)c1coc(-c2ccc(F)cc2)n1,IC50,[3],26 nM
COCCn1cc(NC(=O)c2coc(-c3ccnc(C)c3)n2)c(C(N)=O)n1,IC50,[3],18 nM
same,"fold induction at 48 h, 10 µM",[11],15
CCn1cc(NC(=O)c2csc(-c3ccncc3)n2)c(C(N)=O)n1,"activity at 20 min, 5 µM",[5],4%
same,IC50,[3],20 nM
same,"activity at 20 min, 5 µM",[6],74%
same,"activity at 20 min, 5 µM",[7],78%
same,"activity at 20 min, 5 µM",[9],56%
same,"activity at 20 min, 5 µM",[10],70%
Cc1cc(-c2nc(C(=O)Nc3cn(C4CCN(C)CC4)nc3C(N)=O)co2)ccn1,IC50,[3],18 nM
same,IC50,[2],450 nM
same,"fold induction at 48 h, 15 µM",[4],3.6
CCCCn1cc(NC(=O)c2coc(-c3ccnc(C)c3)n2)c(C(N)=O)n1,IC50,[3],25 nM
same,"fold induction at 48 h, 5 µM",[8],8.9
Cc1cc(-n2ccc(C(=O)Nc3cn(C4CCOCC4)nc3C(N)=O)n2)ccn1,IC50,[3],24 nM
CC(=O)N1CCC(n2cc(NC(=O)c3coc(-c4ccnc(C)c4)n3)c(C(N)=O)n2)CC1,IC50,[3],17 nM
same,IC50,[2],460 nM
same,"fold induction at 48 h, 15 µM",[4],3.2
Cc1cc(-c2nc(C(=O)Nc3cn(C)nc3C(N)=O)co2)ccn1,IC50,[3],16 nM
same,"fold induction at 48 h, 7.5 µM",[12],21
Cc1cc(-c2nc(C(=O)Nc3cn(C4CCOC4)nc3C(N)=O)co2)ccn1 (centres undefined),"fold induction at 48 h, 30 µM",[1],10
same,IC50,[3],30 nM
CCn1cc(NC(=O)c2coc(-c3ccncc3)n2)c(C(N)=O)n1,"activity at 20 min, 5 µM",[5],6%
same,"activity at 20 min, 5 µM",[6],70%
same,"activity at 20 min, 5 µM",[7],89%
same,"activity at 20 min, 5 µM",[9],59%
same,"activity at 20 min, 5 µM",[10],103%
Cc1cc(-c2nc(C(=O)Nc3cn(CC4(C)COC4)nc3C(N)=O)co2)ccn1,IC50,[3],150 nM
Cn1cc(-c2nc(C(=O)Nc3cn(C4CCOCC4)nc3C(N)=O)co2)ccc1=O,IC50,[3],32 nM
Cc1cc(-c2nc(C(=O)Nc3cn(CC4CCOC4)nc3C(N)=O)co2)ccn1 (centres undefined),IC50,[3],34 nM
same,"fold induction at 48 h, 15 µM",[4],4.5
Cc1cc(-c2ncc(C(=O)Nc3cn(C4CCOCC4)nc3C(N)=O)o2)ccn1,IC50,[3],80 nM
NC(=O)c1nn(C2CCOCC2)cc1NC(=O)c1coc(-c2ccnc(CO)c2)n1,IC50,[3],52 nM
